Data taken from patent publication US11173146B2, “Selective activators of the intermediate conductance CA2+activated K+ channel KCa3.1 and their methods of use” (The Regents of the University of California, priority 2014, dated 2021).
Several values for one entry are separate records, joined by “and”; a condition that tells them apart may be missing. Equal entries are not always repeated. Entries after “also recorded” stand apart in the source; their conditions may differ. Where two headings read alike, the source gives them in different places.

Columns and labels:
[1] = logP; assay type: physicochemical
[2] = molecular target: rKCa2.2 (UniProt P0DP23+P70604); experiment: Whole-cell patch-clamp KCa2.2 activation (HEK-293)
[3] = molecular target: hKCa2.1 (Homo sapiens, UniProt P0DP23+Q92952); experiment: Whole-cell patch-clamp KCa2.1 activation (HEK-293)
[4] = tested on: KCa3.1−/− mice; experiment: Telemetry in KCa3.1−/− mice; conditions: 100 mg/kg i.p.
[5] = molecular target: KCa3.1 (Homo sapiens, UniProt O15554+P0DP23); experiment: Whole-cell patch-clamp KCa3.1 activation (QPatch, HEK-293); assay type: cell-based; set-up: host or cells: HEK-293
Source text: Cells, Cell lines and Clones. […] The cloning of hKCa2.3 (19 CAG repeats) and hKCa3.1 has been previously described (Wulff et al., 2000). The hKCa2.3 clone was later stably expressed in COS-7 cells at Aurora Biosciences Corp., San Diego, Calif. Cell lines stably expressing other mammalian ion channels were gifts from several sources: hKCa1.1 in HEK-293 cells (Andrew Tinker, University College London); hKV2.1 in HEK293 cells (James Trimmer, UC Davis); KV11.1 (HERG) in HEK-293 cells (Craig January, University of Wisconsin, Madison); hNaV1.4 in HEK-293 cells (Frank Lehmann-Horn, University of Ulm, Germany), hNaV1.5 in HEK-293 cells (Christopher Lossin, University of California Davis), and hCaV1.2 in HEK-293 cells (Franz Hofmann, Munich, Germany).
Electrophysiology. Experiments were conducted either manually with an EPC-10 amplifier (HEKA, Lambrecht/Pfalz, Germany) or on a QPatch-16 automated electrophysiology platform (Sophion Biosciences, Denmark). […] Patch pipettes were pulled from soda lime glass (micro-hematocrit tubes, Kimble Chase, Rochester, N.Y.) and had resistances of 2-3 MΩ. […] Free Ca^2+ concentrations were calculated with MaxChelator assuming a temperature of 25° C., a pH of 7.2 and an ionic strength of 160 mM. […] Na^+ aspartate Ringer was used as an external solution (in mM): 160 Na^+ aspartate, 4.5 KCl, 2 CaCl2, 1 MgCl2, 5 HEPES, pH 7.4, 290-310 mOsm. […] Reduction of both peak and tail current by the drug was determined. NaV1.7 currents were recorded with 30 ms pulses from −90 mV to −10 mV every 10 sec with a CsF-based pipette solution and normal Ringer as an external solution. CaV1.2 currents were elicited by 100-ms depolarizing pulses from −80 to 20 mV every 10 sec with a CsCl-based pipette solution and an external solution containing 30 mM BaCl2. Blockade of both Na^+ and Ca^2+ currents was determined as reduction of the current minimum.
For automated electrophysiology experiments cells were grown to ˜70% confluency, rinsed in sterile PBS containing 0.02% EDTA, and lifted with 2 mL of TrypLE™ Express (Gibco, Grand Island, N.Y.) for ˜2 min. When cells were rounded but not detached, they were dislodged by gentle tapping, suspended in DMEM, centrifuged and resuspended in 1 ml of external solution, placed into the Qfuge tube and resuspended in 150-200 μL extracellular solution after one additional spin on the QPatch. Whole-cell patch-clamp experiments were then carried out using disposable 16-channel planar patch chip plates (QPlates; patch hole diameter approximately 1 μm, resistance 2.00±0.02 MΩ). […] In order to avoid rejection of cells with large KCa3.1 currents the minimum seal resistance for whole-cell requirement was lowered to 0.001 GΩ. […] Following establishment of the whole-cell configuration, cells were held at −80 mV and KCa3.1, KCa2.1 or KCa2.2 currents elicited by a voltage protocol that held at −80 mV for 20 ms, stepped to −120 mV for 20 ms, ramped from −120 to 40 mV in 200 ms and then stepped back to −120 mV for 20 ms. This pulse protocol was applied every 10 s. […] NaV1.2 currents from N1E-115 cells, NaV1.4 and NaV1.5 currents from stably transfected HEK cells were recorded with 20 ms pulses from −90 mV to 0 mV every 10 sec with a KF-based internal solution and normal Ringer as an external solution. Current slopes (in ampere per sec) were measured using the SophionQPatch software and exported to Microsoft Excel and Origin 7.0 (OriginLab Corp. MA) for analysis. […] Data fitting to the Hill equation to obtain EC50 and IC50 values was performed with Origin 7.0. Data are expressed as mean±SD.

Cc1cc2nc(N)oc2c2ccccc12 [SKA-121, 5-Methylnaphtho[2,1-d]oxazol-2-amine]
logP [1]: 1.79 | EC50 [2]: 6.8 ± 2.2 µM | Hill coefficient nH, KCa2.2 concentration-response curve ([2]; FIG. 4 legend): 1.7 | EC50 [3]: 8.7 ± 1.6 µM | Hill coefficient nH, KCa2.1 concentration-response curve ([3]; FIG. 4 legend): 4.1 | HR [4]: did not; also recorded: no significant effects | MAP [4]: did not; also recorded: no significant effects | maximal KCa3.1 current increase ([5]; 250 nM free Ca2+): roughly 30 fold | EC50 ([5]; 250 nM free Ca2+, read-out: EC50 for KCa3.1 activation): 109 nM and 111 nM and ~110 nM | EC50 ([5]; Appendix A, read-out: KCa3.1 EC50 (converted)): 200 nM | Hill coefficient nH, KCa3.1 concentration-response curve ([5]; FIG. 4 legend): 3.0 | selectivity for KCa3.1 over the three KCa2 channels ([5]; KCa2.1, KCa2.2 and KCa2.3): 40-80 fold | EC50 ([5]; Table 1, 250 nM free Ca2+, read-out: KCa3.1 EC50 (converted)): 109 nM | selectivity for KCa3.1 over KCa2.3 ([5]; ratio of EC50 values): ~40 fold
